In patent US10030020B2, “Spirocycle compounds and methods of making and using same” (Abide Therapeutics, Inc., priority 2016, dated 2018):
Where two headings read alike, the source gives them in different places.

Tests used:
[1] = target: T1, MAGL (Mus musculus (Mouse), UniProt O35678); assay: In vitro competitive activity-based protein profiling (mouse brain membrane fraction or cell lysates), MAGL band; assay type: biochemical; settings: for inhibition at 1 µM: read-out: MAGL % Inh 1 μM (mouse); for IC50: competitive ABPP
Method: In Vitro Competitive Activity-Based Protein Profiling.
Proteomes (mouse brain membrane fraction or cell lysates) (50 μL, 1.0 mg/mL total protein concentration) were preincubated with varying concentrations of inhibitors at 37° C. After 30 min, FP—Rh (1.0 μL, 50 μM in DMSO) was added and the mixture was incubated for another 30 min at 37° C. Reactions were quenched with SDS loading buffer (50 μL-4×) and run on SDS-PAGE.

[2] = target: MAGL (Homo sapiens (Human), UniProt Q99685); assay: In vitro competitive activity-based protein profiling (human prefrontal cortex or cell membrane fractions; hMAGL expressed in HEK293T cells); assay type: biochemical
Method: In Vitro Competitive Activity-Based Protein Profiling (Human).
Proteomes (human prefrontal cortex or cell membrane fractions) (50 μL, 1.0-2.0 mg/mL total protein concentration) were preincubated with varying concentrations of inhibitors at 37° C. After 30 min, FP—Rh or JW912 (1.0 μL, 50 μM in DMSO) was added and the mixture was incubated for another 30 min at room temperature. Reactions were quenched with SDS loading buffer (15 μL-4×) and run on SDS-PAGE.
Recombinant Expression of Human MAGL in HEK293T Cells.
Cell lysates were diluted with mock proteomes for use in competitive ABPP experiments.

[3] = target: T2, FAAH (Mus musculus (Mouse), UniProt O08914); assay: In vitro competitive activity-based protein profiling (mouse brain membrane fraction or cell lysates), FAAH band; assay type: biochemical; settings: for inhibition at 1 µM: read-out: FAAH % Inh 1 μM (mouse); for IC50: competitive ABPP
Summary of the method: (§1)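 Residual hydrolase activity was measured as gel band fluorescence after FP-Rh labelling (30 min, 37° C) of proteomes pretreated 30 min at 37° C with inhibitor.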

[4] = target: T3, ABHD6 (Mus musculus (Mouse), UniProt Q8R2Y0); assay: In vitro competitive activity-based protein profiling (mouse brain membrane fraction or cell lysates), ABHD6 band; assay type: biochemical; settings: for inhibition at 1 µM: read-out: ABHD6 % Inh 1 μM (mouse); for IC50: competitive ABPP
Summary of the method: as §1

[5] = target: T1, MAGL; assay: Mouse brain proteomes from inhibitor treated mice (oral gavage, sacrificed 4 h after administration, ABPP analysis); assay type: in vivo, mouse (C57Bl/6J); settings: 5 mg/kg oral gavage
Summary of the method: (§2)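 Wild-type C57Bl/6J mice; p.o. gavage, vehicle e.g. PEG400/EtOH/PBS 7/2/1; 5 mg/kg. Brain harvested 4 h post-dose, proteome profiled by ABPP. Read-out: % inhibition.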

[6] = target: T3, ABHD6; assay: Mouse brain proteomes from inhibitor treated mice (oral gavage, sacrificed 4 h after administration, ABPP analysis), ABHD6; assay type: in vivo, mouse (C57Bl/6J); settings: 5 mg/kg oral gavage
Summary of the method: as §2

[7] = target: T2, FAAH; assay: Mouse brain proteomes from inhibitor treated mice (oral gavage, sacrificed 4 h after administration, ABPP analysis), FAAH; assay type: in vivo, mouse (C57Bl/6J); settings: 5 mg/kg oral gavage
Summary of the method: as §2

[8] = human proteome, competitive ABPP

T3 sequence (Q8R2Y0 whole entry): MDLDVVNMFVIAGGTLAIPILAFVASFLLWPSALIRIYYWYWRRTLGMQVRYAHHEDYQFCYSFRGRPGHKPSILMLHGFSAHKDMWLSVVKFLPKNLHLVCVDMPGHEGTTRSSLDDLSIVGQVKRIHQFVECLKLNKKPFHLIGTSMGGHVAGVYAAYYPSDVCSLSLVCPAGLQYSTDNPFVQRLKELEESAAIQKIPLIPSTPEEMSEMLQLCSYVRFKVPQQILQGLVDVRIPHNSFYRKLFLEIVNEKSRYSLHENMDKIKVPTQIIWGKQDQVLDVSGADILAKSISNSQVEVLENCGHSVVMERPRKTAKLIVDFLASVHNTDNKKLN
T2 sequence (O08914 whole entry): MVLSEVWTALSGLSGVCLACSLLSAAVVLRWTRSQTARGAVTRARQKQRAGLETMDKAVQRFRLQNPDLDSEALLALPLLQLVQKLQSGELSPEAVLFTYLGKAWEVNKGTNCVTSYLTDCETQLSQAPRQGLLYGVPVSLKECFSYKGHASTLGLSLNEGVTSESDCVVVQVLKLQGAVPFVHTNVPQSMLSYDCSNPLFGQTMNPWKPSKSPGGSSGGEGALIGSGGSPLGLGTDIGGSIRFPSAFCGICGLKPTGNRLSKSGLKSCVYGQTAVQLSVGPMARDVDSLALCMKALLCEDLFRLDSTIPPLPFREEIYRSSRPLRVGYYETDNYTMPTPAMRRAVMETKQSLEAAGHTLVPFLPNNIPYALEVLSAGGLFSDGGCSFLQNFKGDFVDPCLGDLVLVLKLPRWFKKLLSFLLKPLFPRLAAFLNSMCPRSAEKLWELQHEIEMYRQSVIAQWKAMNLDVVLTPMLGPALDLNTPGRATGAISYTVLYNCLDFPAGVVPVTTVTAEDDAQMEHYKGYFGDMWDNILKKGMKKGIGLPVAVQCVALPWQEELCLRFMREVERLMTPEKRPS
MAGL (Homo sapiens (Human), UniProt Q99685), sequence (Q99685 whole entry): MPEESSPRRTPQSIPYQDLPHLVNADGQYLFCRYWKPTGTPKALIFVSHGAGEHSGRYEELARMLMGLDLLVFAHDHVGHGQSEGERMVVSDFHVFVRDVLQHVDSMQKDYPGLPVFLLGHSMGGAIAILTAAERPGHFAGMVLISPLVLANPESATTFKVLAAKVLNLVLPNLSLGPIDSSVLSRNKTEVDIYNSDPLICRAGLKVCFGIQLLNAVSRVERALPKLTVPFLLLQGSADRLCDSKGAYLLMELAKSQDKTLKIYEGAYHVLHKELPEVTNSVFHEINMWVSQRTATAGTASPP
T1 sequence (O35678 whole entry): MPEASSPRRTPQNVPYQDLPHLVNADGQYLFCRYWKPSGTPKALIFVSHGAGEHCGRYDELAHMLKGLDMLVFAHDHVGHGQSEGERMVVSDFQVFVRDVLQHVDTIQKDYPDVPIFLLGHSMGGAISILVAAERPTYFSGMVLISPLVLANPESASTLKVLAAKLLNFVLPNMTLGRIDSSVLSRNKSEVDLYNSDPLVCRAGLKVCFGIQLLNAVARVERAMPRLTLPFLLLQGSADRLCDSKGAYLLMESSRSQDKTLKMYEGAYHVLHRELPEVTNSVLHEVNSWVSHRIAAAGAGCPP

Row | inhibition at 1 µM ([1]; mouse) | IC50 ([2]; human) | inhibition at 1 µM ([3]; mouse) | inhibition at 1 µM ([4]; mouse) | inhibition at 1 µM ([1]; mouse proteome) | IC50 [2, 8] | inhibition at 1 µM ([3]; mouse proteome) | inhibition at 1 µM ([4]; mouse proteome) | IC50 ([1]; mouse proteome) | IC50 ([3]; mouse proteome) | IC50 ([4]; mouse proteome) | MAGL % Inh 5 mg/kg (mouse) [5] | ABHD6 % Inh 5 mg/kg (mouse) [6] | FAAH % Inh 5 mg/kg (mouse) [7] | Structure (SMILES)
1 | > 75% | < 100 nM | < 25% | ≥ 75% |  |  |  |  |  |  |  |  |  |  | O=C(O)c1ccc(CN2CCCC23CCN(C(=O)OC(C(F)(F)F)C(F)(F)F)CC3)c(C(F)(F)F)c1 [Example 265]
2 | > 75% | < 100 nM | < 25% | 25 to 75% |  |  |  |  |  |  |  |  |  |  | O=C(O)C1CCN(c2cc(CN3CCCC34CCN(C(=O)OC(C(F)(F)F)C(F)(F)F)CC4)cc(S(F)(F)(F)(F)F)c2)CC1 [Example 263]
3 | 25 to 75% | < 100 nM | < 25% | < 25% |  |  |  |  |  |  |  |  |  |  | O=C(O)c1cc(C(F)(F)F)ccc1CN1CCCC12CCN(C(=O)OC(C(F)(F)F)C(F)(F)F)CC2 [Example 261]
4 |  |  |  |  |  |  |  |  | < 100 nM | > 1000 nM | > 1000 nM | ### (### is ≥75%) | # (# is <25%) | # (# is <25%) | COc1cc(Cl)ccc1CN1CCCC12CCN(C(=O)OC(C(F)(F)F)C(F)(F)F)CC2 [Example 9, 1,1,1,3,3,3-Hexafluoropropan-2-yl 1-(4-chloro-2-methoxybenzyl)-1,8-diazaspiro[4.5]decane-8-carboxylate]
5 |  |  |  |  | > 75% |  | < 25% | < 25% | < 100 nM | > 1000 nM | > 1000 nM | ### (### is ≥75%) | # (# is <25%) | # (# is <25%) | O=C(OC(C(F)(F)F)C(F)(F)F)N1CCC2(CCCN2Cc2ccc(Cl)c(N3CCCC3)c2)CC1 [Example 132, 1,1,1,3,3,3-Hexafluoropropan-2-yl 1-(4-chloro-3-(pyrrolidin-1-yl)benzyl)-1,8-diazaspiro[4.5]decane-8-carboxylate]
6 |  |  |  |  | > 75% |  | < 25% | < 25% | < 100 nM | > 1000 nM | > 1000 nM | ### (### is ≥75%) | # (# is <25%) | # (# is <25%) | O=C(OC(C(F)(F)F)C(F)(F)F)N1CCC2(CCCN2Cc2ccc(C(F)(F)F)cc2N2CCC(F)CC2)CC1 [Example 91, 1,1,1,3,3,3-Hexafluoropropan-2-yl 1-(2-(4-fluoropiperidin-1-yl)-4-(trifluoromethyl)benzyl)-1,8-diazaspiro[4.5]decane-8-carboxylate]
7 |  |  |  |  | > 75% |  | < 25% | < 25% | < 100 nM | > 1000 nM | > 1000 nM | ### (### is ≥75%) | # (# is <25%) | # (# is <25%) | CCOc1cc(CN2CCCC23CCN(C(=O)OC(C(F)(F)F)C(F)(F)F)CC3)ccc1Cl [Example 32, 1,1,1,3,3,3-Hexafluoropropan-2-yl 1-(4-chloro-3-ethoxybenzyl)-1,8-diazaspiro[4.5]decane-8-carboxylate]
8 |  |  |  |  |  |  |  |  | 100 to 1000 nM | > 1000 nM | > 1000 nM | ### (### is ≥75%) | # (# is <25%) | # (# is <25%) | O=C(OC(C(F)(F)F)C(F)(F)F)N1CCC2(CCCN2Cc2cccc(OCCF)c2)CC1 [Example 27, 1,1,1,3,3,3-Hexafluoropropan-2-yl 1-(3-(2-fluoroethoxy)benzyl)-1,8-diazaspiro[4.5]decane-8-carboxylate]
9 |  |  |  |  |  |  |  |  | < 100 nM | > 1000 nM | > 1000 nM | ### (### is ≥75%) | # (# is <25%) | ### (### is ≥75%) | COc1cccc(CN2CCCC23CCN(C(=O)OC(C(F)(F)F)C(F)(F)F)CC3)c1Cl [Example 7, 1,1,1,3,3,3-Hexafluoropropan-2-yl 1-(2-chloro-3-methoxybenzyl)-1,8-diazaspiro[4.5]decane-8-carboxylate]

The remaining lines, values behind:

Row | Structure (SMILES) | inhibition at 1 µM ([1]; mouse) | IC50 ([2]; human) | inhibition at 1 µM ([3]; mouse) | inhibition at 1 µM ([4]; mouse) | inhibition at 1 µM ([1]; mouse proteome) | IC50 [2, 8] | inhibition at 1 µM ([3]; mouse proteome) | inhibition at 1 µM ([4]; mouse proteome) | IC50 ([1]; mouse proteome) | IC50 ([3]; mouse proteome) | IC50 ([4]; mouse proteome) | MAGL % Inh 5 mg/kg (mouse) [5] | ABHD6 % Inh 5 mg/kg (mouse) [6] | FAAH % Inh 5 mg/kg (mouse) [7]
10 | O=C(O)c1ccc(CN2CCC3(CCN(C(=O)OC(C(F)(F)F)C(F)(F)F)CC3)C2)cc1C(F)(F)F [Example 258] | > 75% | > 1000 nM | < 25% | ≥ 75% |  |  |  |  |  |  |  |  |  | 
11 | CC1(C(=O)O)CCN(c2cc(C(F)(F)F)ccc2CN2CCC3(CCN(C(=O)OC(C(F)(F)F)C(F)(F)F)CC3)C2)C1 (stereo not shown) [Example 219] |  |  |  |  | > 75% | < 100 nM | < 25% | ≥ 75% |  |  |  |  |  | 
12 | O=C(O)C1CCN(c2cc(F)cc(CN3CCC4(CCN(C(=O)OC(C(F)(F)F)C(F)(F)F)CC4)C3)c2)CC1 [Example 233] | > 75% | < 100 nM | < 25% | 25 to 75% |  |  |  |  |  |  |  |  |  | 
13 | O=C(O)C1CN(c2cc(CN3CCCC34CCN(C(=O)OC(C(F)(F)F)C(F)(F)F)CC4)cc(C(F)(F)F)c2)CCO1 (stereo not shown) [Example 204] |  |  |  |  | > 75% | < 100 nM | < 25% | < 25% |  |  |  |  |  | 
14 | COC(=O)C1CCN(c2cc(C(F)(F)F)ccc2CN2CC3(CCN(C(=O)OC(C(F)(F)F)C(F)(F)F)CC3)CC2(C)C)CC1 [Example 53, 1,1,1,3,3,3-Hexafluoropropan-2-yl 2-(2-(4-(methoxycarbonyl)piperidin-1-yl)-4-(trifluoromethyl)benzyl)-3,3-dimethyl-2,8-diazaspiro[4.5]decane-8-carboxylate] |  |  |  |  | > 75% | < 100 nM | < 25% | < 25% | 100 to 1000 nM | > 1000 nM | > 1000 nM |  |  | 
15 | O=C(O)C1CCN(c2cc(CN3CCC4(CCN(C(=O)OC(C(F)(F)F)C(F)(F)F)CC4)C3)cc(S(F)(F)(F)(F)F)c2)CC1 [Example 264] | > 75% | < 100 nM | < 25% | ≥ 75% |  |  |  |  |  |  |  |  |  | 
16 | O=C(O)C1CCN(Cc2cc(CN3CCC4(CCN(C(=O)OC(C(F)(F)F)C(F)(F)F)CC4)C3)cc(C(F)(F)F)c2)CC1 [Example 245] | > 75% | < 100 nM | < 25% | ≥ 75% |  |  |  |  |  |  |  |  |  | 
17 | O=C(O)C1CCN(c2ccc(CN3CCC4(CCN(C(=O)OC(C(F)(F)F)C(F)(F)F)CC4)C3)cc2C(F)(F)F)CC1 [Example 228] | > 75% | < 100 nM | < 25% | ≥ 75% |  |  |  |  |  |  |  |  |  | 
18 | O=C(O)C1CCN(Cc2cc(C(F)(F)F)ccc2CN2CCC3(CCN(C(=O)OC(C(F)(F)F)C(F)(F)F)CC3)C2)CC1 [Example 239] | > 75% | < 100 nM | < 25% | < 25% |  |  |  |  |  |  |  |  |  | 
19 | O=C(O)C1CCN(c2cc(S(F)(F)(F)(F)F)ccc2CN2CCC3(CCN(C(=O)OC(C(F)(F)F)C(F)(F)F)CC3)C2)CC1 [Example 241] | > 75% | < 100 nM | < 25% | ≥ 75% |  |  |  |  |  |  |  |  |  | 
20 | O=C(OC(C(F)(F)F)C(F)(F)F)N1CCC2(CCN(Cc3ccc(Cl)cc3N3CCCC3)C2)CC1 [Example 17, 1,1,1,3,3,3-Hexafluoropropan-2-yl 2-(4-chloro-2-(pyrrolidin-1-yl)benzyl)-2,8-diazaspiro[4.5]decane-8-carboxylate] |  |  |  |  | > 75% |  | < 25% | ≥ 75% | < 100 nM | > 1000 nM | > 1000 nM | ## (## is equal to or greater than 25% but less than 75%) | # (# is <25%) | # (# is <25%)
21 | CC(=O)NC1CCN(c2cc(Cl)ccc2CN2CCCC23CCN(C(=O)OC(C(F)(F)F)C(F)(F)F)CC3)CC1 [Example 104, 1,1,1,3,3,3-Hexafluoropropan-2-yl 1-(2-(4-acetamidopiperidin-1-yl)-4-chlorobenzyl)-1,8-diazaspiro[4.5]decane-8-carboxylate] |  |  |  |  | > 75% |  | 25 to 75% | < 25% | < 100 nM | > 1000 nM | > 1000 nM | ## (## is equal to or greater than 25% but less than 75%) | # (# is <25%) | # (# is <25%)
